Laboratory results reported in patent US6855730B2, “3-methylidenyl-2-indolinone modulators of protein kinase” (Sugen, Inc., priority 1998, dated 2005).

Each molecule was assayed against T1, chimeric receptor containing the EGFR extracellular domain and intracellular HER2 kinase domain (Homo sapiens, UniProt P04626) (assay: EGF Receptor-HER2 chimeric receptor assay in whole cells (ELISA)). Settings: read-out: HER-2 kinase IC50.
T1 construct: fused on or other part: EGFR ectodomain + HER2 intracellular part, ATP-site indolinones: HER2's kinase
T1 sequence (P04626 720-1255 limits assumed, change not shown): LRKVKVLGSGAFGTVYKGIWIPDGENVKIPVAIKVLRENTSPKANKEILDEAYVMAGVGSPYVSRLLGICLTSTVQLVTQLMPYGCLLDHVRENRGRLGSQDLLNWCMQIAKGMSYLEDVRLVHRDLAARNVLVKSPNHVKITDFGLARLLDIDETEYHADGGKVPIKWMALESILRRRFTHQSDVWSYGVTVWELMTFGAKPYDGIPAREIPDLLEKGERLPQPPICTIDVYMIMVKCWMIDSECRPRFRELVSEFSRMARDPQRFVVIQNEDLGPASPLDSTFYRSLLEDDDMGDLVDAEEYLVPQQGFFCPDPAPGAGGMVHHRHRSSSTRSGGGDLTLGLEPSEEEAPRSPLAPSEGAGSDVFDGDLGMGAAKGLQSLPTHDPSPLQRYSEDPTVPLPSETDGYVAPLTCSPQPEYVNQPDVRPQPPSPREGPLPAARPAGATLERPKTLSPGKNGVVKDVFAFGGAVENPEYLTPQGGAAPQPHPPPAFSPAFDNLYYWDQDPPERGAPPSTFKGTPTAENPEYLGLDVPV
Assay type: cell-based
How it was run: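 NIH3T3 cells overexpressing EGFR-extracellular/HER2-kinase chimera, seeded in 0.5% serum for ~40 h, were pretreated with compound (1% final DMSO) 2 h at 37 °C, then stimulated with 100 nM EGF for 5 min. Lysates captured on anti-EGFR plates; phosphotyrosine detected by anti-Ptyr/HRP ELISA at 410 nm as percent inhibition.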
`COc1ccc2c(c1)/C(=C\c1cc(C(C)C)c(OC)c(C(C)C)c1)C(=O)N2` [Example 17, 3-(3,5-Diisopropyl-4-methoxybenzylidene)-5-methoxy-1,3-dihydroindol-2-one] showed an IC50 of 7.8 µM. With `COc1ccc(/C=C2/C(=O)Nc3cc(NC(C)=O)ccc32)cc1-c1ccsc1` [Example 18, N-[3-(4-Methoxy-3-thiophene-3-ylbenzylidene)-2-oxo-2,3-dihydro-1H-indol-6-yl]-acetamide] the IC50 was 8.4 µM. In the case of `COc1c(C(C)C)cc(/C=C2/C(=O)Nc3ccc(C)cc32)cc1C(C)C` [Example 19, 3-(3,5-Diisopropyl-4-methoxybenzylidene)-5-methyl-1,3-dihydroindol-2-one], the IC50 is reported as 9.2 µM. Work on `COc1c(C(C)C)cc(/C=C2/C(=O)Nc3ccc(N)cc32)cc1C(C)C` [Example 20, 5-Amino-3-(3,5-diisopropyl-4-methoxy-benzylidene)-1,3-dihydroindol-2-one] yielded an IC50 of 38.6 µM. `COc1c(C)cc(/C=C2/C(=O)Nc3ccc(Cl)cc32)cc1C` [Example 21, 5-Chloro-3-(4-methoxy-3,5-dimethylbenzylidene)-1,3-dihydroindol-2-one] was tested, and the IC50 was 11.8 µM. For `COc1c(C(C)C)cc(/C=C2/C(=O)Nc3cc(F)ccc32)cc1C(C)C` [Example 22, 3-(3,5-Diisopropyl-4-methoxybenzylidene)-6-fluoro-1,3-dihydroindol-2-one], the IC50 was 12.4 µM. With `CC1(C)CCc2cc(/C=C3/C(=O)Nc4ccc(F)cc43)ccc2O1` [Example 23, 3-(2,2-Dimethylchroman-6-ylmethylene)-5-fluoro-1,3-dihydroindol-2-one] the IC50 was 33.2 µM. With `CC(C)c1cc(/C=C2/C(=O)Nc3ccc(Cl)cc32)cc(C(C)C)c1OCCN1CCOCC1` [Example 24, 5-chloro-3-[3,5-diisopropyl-4-(2-morpholin-4-ylethoxy)-benzylidene]-1,3-dihydroindol-2-one] the IC50 was 13.6 µM. In the case of `COc1ccc(/C=C2/C(=O)Nc3ccc(CCN4CCOCC4)cc32)cc1-c1ccsc1` [Example 26, 3-(4-Methoxy-3-thiophen-3-ylbenzylidene)-5-(2-morpholin-4-yl-ethyl)-1,3-dihydroindol-2-one], the IC50 is reported as 15.3 µM. In the case of `COc1cc(C)c(C=C2C(=O)Nc3cc(NC(C)=O)ccc32)cc1C(C)C` [Example 27, N-[3-(5-Isopropyl-4-methoxy-2-methyl-benzylidene)-2-oxo-2,3-dihydro-1H-indol-6-yl]-acetamide], the IC50 is reported as 15.8 µM. `CCc1ccc2c(c1)/C(=C\c1cc(C(C)C)c(OC)c(C(C)C)c1)C(=O)N2` [Example 28, 3-(3,5-Diisopropyl-4-methoxbenzylidene)-5-ethyl-1,3-dihydroindol-2-one] was tested, and the IC50 was 16.9 µM. Work on `COc1ccc(C=C2C(=O)Nc3ccccc32)cc1-c1cccc(NC(C)=O)c1` [Example 29, N-[2′-Methoxy-5′-(2-oxo-1,2-dihydroindol-3-ylidenemethyl)-biphenyl-3-yl]-acetamide] yielded an IC50 of 17.1 µM. Molecule `COc1cc(C)c(/C=C2/C(=O)Nc3ccc(F)cc32)cc1C(C)C` [Example 30, 5-Fluoro-3-(5-isopropyl-4-methoxy-2-methyl-benzylidene)-1,3-dihydroindol-2-one] has an IC50 of 28 µM. In the case of `COc1ccc(/C=C2/C(=O)Nc3cc(NC(C)=O)ccc32)cc1-c1cccs1` [Example 31, N-[3-(4-Methoxy-3-thiophen-2-ylbenzylidene)-2-oxo-2,3-dihydro-1H-indol-6-yl]-acetamide], the IC50 is reported as 12.9 µM. `COc1c(C(C)C)cc(/C=C2/C(=O)Nc3cc(N)ccc32)cc1C(C)C` [Example 32, 6-Amino-3-(3,5-diisoprotyl-4-methoxy-benzylidene)-1,3-dihydroindol-2-one] showed an IC50 of 90.2 µM. Work on `CC(=O)Nc1ccc2c(c1)NC(=O)/C2=C\c1ccc2c(c1)CCC(C)(C)O2` [Example 33, N-[3-(2,2-Dimethylchroman-6-ylmethylene)-2-oxo-2,3-dihydro-1H-indol-6-yl]-acetamide] yielded an IC50 of 20.2 µM. With `COc1ccc(/C=C2/C(=O)Nc3ccccc32)cc1-c1ccsc1` [Example 35, 3-(4-Methoxy-3-thiophen-3-ylbenzylidene)-1,3-dihydroindol-2-one] the IC50 was 20.7 µM. Molecule `COc1cc(C)c(/C=C2/C(=O)Nc3ccc(Br)cc32)cc1C(C)C` [Example 36, 5-Bromo-3-(5-isopropyl-4-methoxy-2-methyl-benzylidene)-1,3-dihydroindol-2-one] has an IC50 of 20.7 µM. With `COc1ccc(/C=C2/C(=O)Nc3ccc(F)cc32)cc1-c1ccccc1` [Example 37, 5-Fluoro-3-(6-methoxybiphenyl-3-ylmethylene)-1,3-dihydroindol-2-one] the IC50 was 22.5 µM. Work on `COc1ccc(/C=C2\C(=O)Nc3cccc(C)c32)cc1C(C)C` [Example 38, 3-(3-Isopropyl-4-methoxybenzylidene)-4-methyl-1,3-dihydroindol-2-one] yielded an IC50 of 32.3 µM. For `COc1cc(/C=C2/C(=O)Nc3ccccc32)c(-c2cccs2)cc1OC` [Example 39, 3-(4,5-Dimethoxy-2-thiophen-2-ylbenzylidene)-1,3-dihydroindol-2-one], the IC50 was 33.7 µM. `CC(=O)Nc1ccc2c(c1)NC(=O)/C2=C/c1ccc(OCCN2CCOCC2)c(-c2cccs2)c1` [Example 40, N-{3-[4-(2-Morpholin-4-ylethoxy)-3-thiophen-2-ylbenzylidene]-2-oxo-2,3-dihydro-1H-indol-6-yl}-acetamide] showed an IC50 of 36.6 µM. `Cc1cccc2c1/C(=C/c1ccc3c(c1)CCC(C)(C)O3)C(=O)N2` [Example 41, 3-(2,2-Dimethylchroman-6-ylmethylene)-4-methyl-1,3-dihydroindol-2-one] was tested, and the IC50 was 39.8 µM. `O=C1Nc2ccc(F)cc2/C1=C\c1ccc2c(c1)CCO2` [Example 42, 3-(2,3-Dihydrobenzofuran-5-ylmethylene)-5-fluoro-1,3-dihydroindol-2-one] was tested, and the IC50 was 47.5 µM. `COc1ccc(/C=C2/C(=O)Nc3ccc(F)cc32)cc1C1CCCCC1` [Example 43, 3-(3-Cyclohexyl-4-methoxybenzylidene)-5-fluoro-1,3-dihydroindol-2-one] showed an IC50 of 52.9 µM. `COc1ccc(/C=C2/C(=O)Nc3ccc(F)cc32)cc1C(C)C` [Example 44, 5-Fluoro-3-(3-isopropyl-4-methoxybenzylidene)-1,3-dihydroindol-2-one] was tested, and the IC50 was 53.6 µM. `COc1cc(C)c(/C=C2/C(=O)Nc3ncccc32)cc1C(C)C` [Example 45, 3-(5-Isopropyl-4-methoxy-2-methylbenzylidene)-1,3-dihydro-pyrrolo[2,3-b]pyridin-2-one] was tested, and the IC50 was 56.9 µM. In the case of `CCOc1cccc(-c2cc(C=C3C(=O)Nc4ccccc43)ccc2OC)c1` [Example 46, 3-(3′-Ethoxy-6-methoxybiphenyl-3-ylmethylene)-1,3-dihydroindol-2-one], the IC50 is reported as 59.9 µM. `COc1ccc(/C=C2/C(=O)Nc3ncccc32)cc1C1CCCC1` [Example 47, 3-(3-Cyclopentyl-4-methoxybenzylidene)-1,3-dihydropyrrolo[2,3-b]pyridin-2-one] showed an IC50 of 60.6 µM. In the case of `COc1ccc(/C=C2\C(=O)Nc3cccc(C)c32)cc1C1CCCC1` [Example 48, 3-(3-Cyclopentyl-4-methoxybenzylidene)-4-methyl-1,3-dihydroindol-2-one], the IC50 is reported as 65 µM. For `COc1cc(C=C2C(=O)Nc3ccccc32)c(-c2ccccc2OC)cc1OC` [Example 49, 3-(4,5,2′-Trimethoxybiphenyl-2-ylmethylene)-1,3-dihydroindol-2-one], the IC50 was 65.5 µM. `CC(=O)Nc1ccc2c(c1)NC(=O)/C2=C/c1ccc(OCCN2CCOCC2)c(-c2ccsc2)c1` [Example 50, N-{3-[4-(2-Morpholin-4-ylethoxy)-3-thiophen-3-ylbenzylidene]-2-oxo-2,3-dihydro-1H-indol-6-yl}-acetamide] showed an IC50 of 67.6 µM. `COc1ccc(/C=C2/C(=O)Nc3ccc(Cl)cc32)cc1C1CCCCC1` [Example 51, 5-Chloro-3-(3-cyclohexyl-4-methoxybenzylidene)-1,3-dihydroindol-2-one] gave an IC50 of 71.8 µM. Molecule `COc1c(C(C)C)cc(/C=C2/C(=O)Nc3cc(NC(=O)OC(C)(C)C)ccc32)cc1C(C)C` [Example 52, [3-(3,5-Diisopropyl-4-methoxybenzylidene)-2-oxo-2,3-dihydro-1H-indol-6-yl]-carbamic acid tert-butyl ester] has an IC50 of 72.8 µM. `COc1c(C(C)C)cc(/C=C2\C(=O)Nc3cccc(C)c32)cc1C(C)C` [Example 53, 3-(3,5-Diisopropyl-4-methoxybenzylidene)-4-methyl-1,3-dihydroindol-2-one] was tested, and the IC50 was 80.7 µM. Molecule `COc1c(C(C)C)cc(/C=C2/C(=O)Nc3ccc(Br)cc32)cc1C(C)C` [Example 54, 5-Bromo-3-(3,5-diisopropyl-4-methoxybenzylidene)-1,3-dihydroindol-2-one] has an IC50 of 85.6 µM. With `CC(=O)Nc1ccc2c(c1)NC(=O)/C2=C/c1ccc(OCCN2CCOCC2)c(C(C)(C)C)c1` [Example 55, N-{3-[3-tert-Butyl-4-(2-morpholin-4-ylethoxy)-benzylidene]-2-oxo-2,3-dihydro-1H-indol-6-yl}-acetamide] the IC50 was 89.3 µM. For `COc1c(C)cc(/C=C2/C(=O)Nc3ncccc32)cc1C` [Example 56, 3-(4-Methoxy-3,5-dimethylbenzylidene)-1,3-dihydropyrrolo[2,3-b]pyridin-2-one], the IC50 was 96.2 µM. `CC(C)c1cc(/C=C2/C(=O)Nc3ccc(Br)cc32)cc(C(C)C)c1OCCN1CCOCC1` [Example 57, 5-Bromo-3-[3,5-diisopropyl-4-(2-morpholin-4-ylethoxy)benzylidene]-1,3-dihydroindol-2-one] was tested, and the IC50 was > 100 µM. `CCOc1cccc(-c2cc(OC)c(OC)cc2/C=C2/C(=O)Nc3ccccc32)c1` [Example 58, 3-(3′-Ethoxy-4,5-dimethoxybiphenyl-2-ylmethylene)-1,3-dihydroindol-2-one] was tested, and the IC50 was > 100 µM. With `COc1ccc(/C=C2/C(=O)Nc3ccc(Cl)cc32)cc1-c1cccs1` [Example 59, 5-chloro-3-(4-Methoxy-3-thiophen-2-ylbenzylidene)-1,3-dihydroindol-2-one] the IC50 was > 100 µM. In the case of `COc1ccc(/C=C2/C(=O)Nc3ccc(Cl)cc32)cc1-c1cccnc1` [Example 60], the IC50 is reported as > 100 µM.
